This passage reports IC50 results from patent US8809352B2, “Sulfonamides as inhibitors of Bcl-2 family proteins for the treatments of cancer” (Novartis AG, priority 2009, dated 2014).

In general, IC50 refers to the concentration that inhibits the measured activity by half.

BCL2, sequence (P10415 whole entry): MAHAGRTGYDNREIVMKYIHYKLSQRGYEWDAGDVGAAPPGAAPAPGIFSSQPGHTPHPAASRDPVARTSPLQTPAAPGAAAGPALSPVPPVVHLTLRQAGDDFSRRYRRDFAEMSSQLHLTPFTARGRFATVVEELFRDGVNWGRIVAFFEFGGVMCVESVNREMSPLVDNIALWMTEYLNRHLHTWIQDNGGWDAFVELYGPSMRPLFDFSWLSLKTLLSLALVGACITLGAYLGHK

The test has as its target BCL2 (Homo sapiens, UniProt P10415). In words: Biacore SPR solution inhibition assay of BCL-2 binding to peptide derivatized sensor surfaces. The settings on record: SPR competition; 56 nM BCL2 pre-equilibrated with compound one hour; biotinylated BAK, BAD and NOXA peptide surfaces; 25° C. In a few lines:
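Solution-competition SPR at 25 °C in HEPES pH 7.4 buffer with 1.25 mM DTT and 3% DMSO: compounds (6-point threefold series, 16 μM to 0.004 nM) pre-equilibrated 1 h with 56 nM BCL2, then injected over captured biotinylated BAK, BAD and NOXA peptide surfaces. Binding levels relative to BCL2-only controls gave % inhibition.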
On to `[2H]C1(N2CCc3c(ncnc3NS(=O)(=O)c3ccc(N[C@H](CCN4CCCC4)CSc4ccccc4)c(S(=O)(=O)C(F)(F)F)c3)C2)CCN(Cc2cc(F)ccc2-c2ccc(Cl)cc2)CC1` [Example 82, (R)-N-(7-(1-((4′-chloro-4 fluorobiphenyl-2-yl)methyl)-4-dueteropiperidin-4-yl)-5,6,7,8-tetrahydropyrido[3,4-d]pyrimidin-4-yl)-4-(1-(phenylthio)-4-(pyrrolidin-1-yl)butan-2-ylamino)-3-(trifluoromethylsulfonyl) benzene sulfonamide], for which the 50% inhibitory concentration (IC50) amounted to 109 nM.

As for `CN(C)CC[C@H](CSc1ccccc1)Nc1ccc(S(=O)(=O)Nc2ncnc3c2CCN(C2CCN(Cc4ccccc4-c4ccc(Cl)cc4)CC2)C3)cc1[N+](=O)[O-]` [Example 1, N-{7-[1-(4′-Chloro-biphenyl-2-ylmethyl)-piperidin-4-yl]-5,6,7,8-tetrahydro-pyrido[3,4-d]pyrimidin-4-yl}-4-((R)-3-dimethylamino-1-phenylsulfanylmethyl-propylamino)-3-nitro-benzenesulfonamide], the IC50 came to 100 nM.

In the case of `[2H]C1(N2CCc3c(ncnc3NS(=O)(=O)c3ccc(N[C@H](CCN)CSc4ccccc4)c(S(=O)(=O)C(F)(F)F)c3)C2)CCN(Cc2cc(F)ccc2-c2ccc(Cl)cc2)CC1` [Example 79, 4-((R)-3-Amino-1-phenylsulfanylmethyl-propylamino)-N-{7-[4-deutero-1-(4′-chloro-4-fluoro-biphenyl-2-ylmethyl)-piperidin-4-yl]-5,6,7,8-tetrahydro-pyrido[3,4-d]pyrimidin-4-yl}-3-trifluoromethanesulfonyl-benzenesulfonamide], the half-inhibitory concentration (IC50) amounted to 84 nM.

In the case of `CN(C)CC[C@H](CSc1ccccc1)Nc1ccc(S(=O)(=O)Nc2ncnc3c2CCN(C2CCN(Cc4ccccc4-c4ccc(Cl)cc4)CC2F)C3)cc1S(=O)(=O)C(F)(F)F` (stereo partly drawn) [Example 66, N-(7-(1-((4′-chlorobiphenyl-2-yl)methyl)-3-fluoropiperidin-4-yl)-5,6,7,8tetrahydropyrido[3,4-d]pyrimidin-4-yl)-4-((R)-4-(dimethylamino)-1-(phenylthio)butan-2-ylamino)-3-(trifluoromethylsulfonyl)benzenesulfonamide], the IC50 stood at 36 nM.

As to `CN(C)CC[C@H](CSc1ccccc1)Nc1ccc(S(=O)(=O)Nc2ncnc3c2CCN(C2CCN(CC4=C(c5ccc(Cl)cc5)CCC(C)(C)C4)CC2)C3)cc1[N+](=O)[O-]` [Example 2], the IC50 amounted to 31 nM.

Turning to `[2H]C1(N2CCc3c(ncnc3NS(=O)(=O)c3ccc(N[C@H](CCN4CC5CCC(C4)O5)CSc4ccccc4)c(S(=O)(=O)C(F)(F)F)c3)C2)CCN(Cc2cc(F)ccc2-c2ccc(Cl)cc2)CC1` [Example 80, 4-((2R)-4-(8-oxa-3-azabicyclo[3.2.1]octan-3-yl)-1-(phenylthio)butan-2-ylamino)-N-(7-(1-((4′-chloro-4-fluorobiphenyl-2-yl)methyl)-4-deuteropiperidin-4-yl)-5,6,7,8-tetrahydropyrido[3,4-d]pyrimidin-4-yl)-3-(trifluoromethylsulfonyl)benzenesulfonamide], the IC50 came to 225 nM.

Turning to `O=S(=O)(Nc1ncnc2c1CCN(C1CCN(Cc3ccccc3-c3ccc(Cl)cc3)CC1)C2)c1ccc(N[C@H](CCN2CCCCC2)CSc2ccccc2)c(S(=O)(=O)C(F)(F)F)c1` [Example 30, (R)-N-(7(1-((4′-chlorobiphenyl-2-yl)methyl)piperidin-4-yl)-5,6,7,8-tetrahydropyrido[3,4-d]pyrimidin-4-yl)-4-(l-(phenylthio)-4-(piperidin-1-yl)butan-2-ylamino)-3-(trifluoromethylsulfonyl)benzenesulfonamide], the IC50 came to 128 nM.

For the compound `CN(C)CC[C@H](CSc1ccccc1)Nc1ccc(S(=O)(=O)Nc2ncnc3c2CCN(C2CCN(Cc4ccccc4-c4ccc(Cl)cc4)CC2)C3)cc1C(F)(F)F` [Example 53], the IC50 came to 66 nM.

For `CN(C)CC[C@H](COCc1ccccc1)Nc1ccc(S(=O)(=O)Nc2ncnc3c2CCN(C2CCN(Cc4ccccc4-c4ccc(Cl)cc4)CC2)C3)cc1S(=O)(=O)C(F)(F)F` [Example 25, 4-((R)-1-Benzyloxymethyl-3-dimethylamino-propylamino)-N-{7-[1-(4′-chloro-biphenyl-2-ylmethyl)-piperidin-4-yl]-5,6,7,8-tetrahydro-pyrido[3,4-d]pyrimidin-4-yl}-3-trifluoromethanesulfonyl-benzenesulfonamide], the IC50 came to 142 nM.

Consider `CC(=O)N(CCSc1ccccc1)c1ccc(S(=O)(=O)Nc2ncnc3c2CCN(C2CCN(Cc4cc(F)ccc4-c4ccc(Cl)cc4)CC2)C3)cc1S(=O)(=O)C(F)(F)F` [Example 15], for which the IC50 turned out to be 757 nM.

On to `CN(C)CC[C@H](CSc1ccccc1)Nc1ccc(S(=O)(=O)Nc2ncnc3c2CCN(C2CCN(Cc4ccccc4-c4ccc(Br)cc4)CC2)C3)cc1S(=O)(=O)C(F)(F)F` [Example 6, (R)-N-(7-(1-((4′-bromobiphenyl-2-yl)methyl)piperidin-4-yl)-5,6,7,8-tetrahydropyrido[3,4-d]pyrimidin-4-yl)-4-(4-(dimethylamino)-1-(phenylthio)butan-2-ylamino)-3-(trifluoromethylsulfonyl)benzenesulfonamide], for which the IC50 amounted to 19 nM.

Turning to `CN(C)CC[C@H](CSc1ccccc1)Nc1ccc(S(=O)(=O)Nc2ncnc3c2CCN(C2CCC(=Cc4ccccc4)CC2)C3)cc1S(=O)(=O)C(F)(F)F` (stereo partly shown) [Example 63], the IC50 was 1180 nM.

As for `CN(C)CC[C@H](CSc1ccccc1Cl)Nc1ccc(S(=O)(=O)Nc2ncnc3c2CCN(C2CCN(CC4=C(c5ccc(Cl)cc5)CC(C)(C)CC4)CC2)C3)cc1S(=O)(=O)C(F)(F)F` [Example 28, (R)-N-(7-(1((2-(4-chlorophenyl)-4,4-dimethylcyclohex-1-enyl)methyl)piperidin-4-yl)-5,6,7,8-tetrahydropyrido[3,4-d]pyrimidin-4-yl)-4-(1-(2-chlorophenylthio)-4-(dimethylamino)butan-2-ylamino)-3-(trifluoromethylsulfonyl)benzenesulfonamide], the IC50 was determined as 44 nM.

Consider `O=S(=O)(Nc1ncnc2c1CN(C1CCN(Cc3ccccc3-c3ccc(Cl)cc3)CC1)C2)c1ccc(N[C@H](CCN2CCOCC2)CSc2ccccc2)c(S(=O)(=O)C(F)(F)F)c1` [Example 72, (R)-N-(6-(1-((4′-chlorobiphenyl-2-yl)methyl)piperidin-4-yl)-6,7-dihydro-5H-pyrrolo[3,4-d]pyrimidin-4-yl)-4-(4-morpholino-1-(phenylthio)butan-2-ylamino)-3-(trifluoromethylsulfonyl)benzenesulfonamide], for which the 50% inhibitory concentration (IC50) is 971 nM.

On to `CCN1CCN(CC[C@H](CSc2ccccc2)Nc2ccc(S(=O)(=O)Nc3ncnc4c3CCN(C3CCN(Cc5ccccc5-c5ccc(Cl)cc5)CC3)C4)cc2S(=O)(=O)C(F)(F)F)CC1` [Example 23, N-{7-[1-(4′-Chloro-biphenyl-2-ylmethyl)-piperidin-4-yl]-5,6,7,8-tetrahydro-pyrido[3,4-d]pyrimidin-4-yl}-4[(R)-3-(4-ethyl-piperazin-1-yl)-1-phenylsulfanylmethyl-propylamino]-3-trifluoromethanesulfonyl-benzenesulfonamide], for which the IC50 stood at 51 nM.

Turning to `CC(c1cc(F)ccc1-c1ccc(Cl)cc1)N1CCC(N2CCc3c(ncnc3NS(=O)(=O)c3ccc(N[C@H](CCN4CCOCC4)CSc4ccccc4)c(S(=O)(=O)C(F)(F)F)c3)C2)CC1` (stereo partly drawn) [Example 31, N-(7-(1-(1-(4′-chloro-4-fluorobiphenyl-2-yl)ethyl)piperidin-4-yl)-5,6,7,8-tetrahydropyrido[3,4-d]pyrimidin-4-yl)-4-((R)-4-morpholino-1-(phenylthio)butan-2-ylamino)-3-(trifluoromethylsulfonyl)benzenesulfonamide], the 50% inhibitory concentration (IC50) stood at 84 nM.

On to `CN(C)CC[C@H](CSc1ccccc1)Nc1ccc(S(=O)(=O)Nc2nc(C(F)(F)F)nc3c2CCN(C2CCN(CC4=C(c5ccc(Cl)cc5)CCC(C)(C)C4)CC2)C3)cc1S(=O)(=O)C(F)(F)F` [Example 70], for which the IC50 was found to be 51 nM.

Regarding `CC[C@H](CSc1ccccc1)Nc1ccc(S(=O)(=O)Nc2ncnc3c2CCN(C2CCN(Cc4ccccc4-c4ccc(Cl)cc4)CC2)C3)cc1S(=O)(=O)C(F)(F)F` [Example 13], the IC50 is 502 nM.

Turning to `CC1CC(N2CCc3c(ncnc3NS(=O)(=O)c3ccc(N[C@H](CCN4CCOCC4)CSc4ccccc4)c(S(=O)(=O)C(F)(F)F)c3)C2)CCN1CC1=C(c2ccc(Cl)cc2)CC(C)(C)CC1` (stereo partly drawn) [Example 27, N-(7-(1-((2-(4-chlorophenyl)-4,4-dimethylcyclohex-1-enyl)methyl)-2-methylpiperidin-4-yl)-5,6,7,8-tetrahydropyrido[3,4-d]pyrimidin-4-yl)-4-((R)-4-morpholino-1-(phenylthio)butan-2-ylamino)-3-(trifluoromethylsulfonyl)benzenesulfonamide], the 50% inhibitory concentration (IC50) was 206 nM.

For the compound `O=S(=O)(Nc1nnc2n1CCN(C1CCN(Cc3ccccc3-c3ccc(Cl)cc3)CC1)C2)c1ccc(N[C@H](CCN2CCOCC2)CSc2ccccc2)c(S(=O)(=O)C(F)(F)F)c1` [Example 94], the IC50 was found to be 405 nM.

With `CN(C)CC[C@H](CSc1ccccc1)Nc1ccc(S(=O)(=O)Nc2ncnc3c2CCN(C2CCN(Cc4ccccc4-c4ccc(Cl)cc4)CC2)C3)cc1C#N` [Example 54, (R)-N-(7-(1-((4′-chlorobiphenyl-2-yl)methyl)piperidin-4-yl)-5,6,7,8-tetrahydropyrido[3,4-d]pyrimidin-4-yl)-3-cyano-4-(4-(dimethylamino)-1-(phenylthio)butan-2-ylamino)benzenesulfonamide], the IC50 came out at 173 nM.

As to `C[C@H]1CC(N2CCc3c(ncnc3NS(=O)(=O)c3ccc(N[C@H](CCN(C)C)CSc4ccccc4)c([N+](=O)[O-])c3)C2)CCN1Cc1ccccc1-c1ccc(Cl)cc1` (mixture of isomers) [Example 3], the IC50 was determined as 62 nM.
